For the assay, the target named is T1, glucokinase (GK) (Homo sapiens, UniProt P35557).
T1 construct: I.D. No. 1 corresponds to residues 12-465 of glucokinase; made in house; host or cells: E. coli DH10b-T1r, pFLAG-CTC plasmid
T1 sequence (P35557 with tags, fused parts or gaps isoform P35557-2): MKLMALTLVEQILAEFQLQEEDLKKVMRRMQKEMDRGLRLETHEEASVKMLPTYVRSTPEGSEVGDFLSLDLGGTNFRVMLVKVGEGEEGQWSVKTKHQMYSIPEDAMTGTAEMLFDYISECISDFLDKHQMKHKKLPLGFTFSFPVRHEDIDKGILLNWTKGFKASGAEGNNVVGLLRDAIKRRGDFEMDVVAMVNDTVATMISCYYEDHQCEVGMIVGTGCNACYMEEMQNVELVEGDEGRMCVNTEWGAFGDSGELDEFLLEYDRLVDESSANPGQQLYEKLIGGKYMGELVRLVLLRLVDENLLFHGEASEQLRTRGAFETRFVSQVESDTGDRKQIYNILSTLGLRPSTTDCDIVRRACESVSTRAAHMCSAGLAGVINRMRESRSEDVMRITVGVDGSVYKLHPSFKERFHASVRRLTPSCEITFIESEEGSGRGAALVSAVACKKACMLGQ
As to the kind of experiment: enzymatic glucokinase activity assay (ATP consumption, KinaseGlo luminescence). The assay is classed as biochemical. The following applies: Against GK; Kact = concentration giving 50% of maximal increase in GK activity; 5 μM ATP, 5 mM Glucose, 60 min room temperature; values given as bins; read-out: pKact. The text has this: The activity of compounds as glucokinase activators may be assayed in vitro, in vivo or in a cell line. Provided below is an enzymatic glucokinase activity assay.
Purified glucokinase may be obtained as follows. DNA encoding residues 12-465 of the full-length sequence of the human enzyme may be amplified by PCR and cloned into the HindIII and EcoRI sites of pFLAG-CTC (Sigma). SEQ. I.D. No. 1 corresponds to residues 12-465 of glucokinase.
The expression of recombinant glucokinase protein may be carried out by transformation and growth of DH10b-T1r E. coli cells incorporating the (pFLAG-CTC) plasmid in LB media. Protein expression can be induced in this system by the addition of IPTG to the culture medium.
Recombinant protein may be isolated from cellular extracts by passage over Sepharose Q Fast Flow resin (Pharmacia). This partially purified GK extract may then be further purified by a second passage over Poros HQ10 (Applied Biosystems). The purity of GK may be determined on denaturing SDS-PAGE gel. Purified GK may then be concentrated to a final concentration of 20.0 mg/ml. After flash freezing in liquid nitrogen, the proteins can be stored at −78° C. in a buffer containing 25 mM TRIS-HCl pH 7.6, 50 mM NaCl, and 0.5 mM TCEP.
The activation properties of compounds for GK may be determined using a black 384-well-plate format under the following reaction conditions: 25 mM Hepes pH 7.2, 25 mM NaCl, 10 mM MgCl2, 0.01% Brij35, 1 mM DTT, 5 μM ATP, 5 mM Glucose 2% DMSO. The amount of ATP consumed may be determined quantitatively by addition of equal volume of luciferase reagent (luciferase+beetle luciferin—KinaseGlo Luminescent Kinase Assay kit from Promega). The luminescence intensity may be measured by using the Analyst HT from LJL Biosystems.
The assay reaction may be initiated as follows: 4 μl of substrate mixture (12.5 μM ATP and 12.5 mM Glucose) was added to each well of the plate, followed by the addition of 2 μl of activator (2 fold serial dilutions for 11 data points for each activator) containing 10% DMSO. 4 μL of 1.25 nM GK solution may be added to initiate the reaction. The reaction mixture may then be incubated at room temperature for 60 min, and quenched and developed by addition of 10 μL of luciferase reagent. Luminescence intensities of the resulting reaction mixtures may be measured after a 10 min incubation at room temperature. The luminescence intensity may be measured by using the Analyst HT from LJL Biosystems.
pKact and % ACTmax values may be calculated by non-linear curve fitting of the compound concentrations and luminescence intensities to a standard inhibition/activation equation.
(In general: In Kinase-Glo more light means more ATP remaining.)

20 compounds from patent US8034822B2, “Glucokinase activators” (Takeda San Diego, Inc., priority 2006, dated 2011) can be followed below.

For `O=C(Nc1ccc(F)cn1)C(CC1CCCCC1)n1cnc2cc(S(=O)(=O)C3CC3)ccc2c1=O` (centres unmarked) [Compound 74, 3-Cyclohexyl-2-(7-cyclopropanesulfonyl-4-oxo-4H-quinazolin-3-yl)-N-(5-fluoro-pyridin-2-yl)-propionamide], the EC50 lay within 1000 to 1580 nM.

As for `NC(=O)c1ccc(NC(=O)C(CC2CCCCC2)n2cnc3cc(S(=O)(=O)C4CCCC4)ccc3c2=O)nc1` (centres unmarked) [Compound 80, 6-[3-Cyclohexyl-2-(7-cyclopentanesulfonyl-4-oxo-4H-quinazolin-3-yl)-propionylamino]-nicotinamide], the EC50 was at most 398 nM.

For `CS(=O)(=O)c1ccc2c(=O)n(C(CC3CCCCC3)C(=O)Nc3ccc(C(N)=O)cn3)cnc2c1` (centres unmarked) [Compound 158, 6-(3-cyclohexyl-2-(7-(methylsulfonyl)-4-oxoquinazolin-3(4H)-yl)propanamido)nicotinamide], the EC50 was in the range of 501 to 794 nM.

Regarding `CN(C)CCNC(=O)c1ccc2c(=O)n(C(CC3CCCCC3)C(=O)Nc3ncc(Cl)s3)cnc2c1` (centres unmarked) [Compound 176, 3-(1-(5-chlorothiazol-2-ylamino)-3-cyclohexyl-1-oxopropan-2-yl)-N-(2-(dimethylamino)ethyl)-4-oxo-3,4-dihydroquinazoline-7-carboxamide], the EC50 is 1000 to 1580 nM.

Take `CS(=O)(=O)c1ccc2c(=O)n(C(CC3CCCCC3)C(=O)Nc3ncc(Cl)s3)c(=O)[nH]c2c1` (centres unmarked) [Compound 55, N-(5-Chloro-thiazol-2-yl)-3-cyclohexyl-2-(7-methanesulfonyl-2,4-dioxo-1,4-dihydro-2H-quinazolin-3-yl)-propionamide]: the EC50 lay within 501 to 794 nM.

Take `O=C(Nc1ncc(Cl)s1)C(CC1CCCCC1)n1cnc2ccc(F)cc2c1=O` (centres unmarked) [Compound 50, N-(5-Chloro-thiazol-2-yl)-3-cyclohexyl-2-(6-fluoro-4-oxo-4H-quinazolin-3-yl)-propionamide]: the EC50 is at least 2000 nM.

With `COC(=O)c1ccc(NC(=O)C(CC2CCCCC2)n2cnc3c(S(=O)(=O)C(C)C)csc3c2=O)nc1` (centres unmarked) [Compound 104, Methyl 6-(3-cyclohexyl-2-(7-(isopropylsulfonyl)-4-oxothieno[3,2-d]pyrimidin-3(4H)-yl)propanamido)nicotinate], the EC50 lay within 501 to 794 nM.

Take `O=C(NC1CC1)c1ccc2c(=O)n(C(CC3CCCCC3)C(=O)Nc3ccc(F)cn3)c(=O)[nH]c2c1` (centres unmarked) [Compound 119, 3-(3-cyclohexyl-1-(5-fluoropyridin-2-ylamino)-1-oxopropan-2-yl)-N-cyclopropyl-2,4-dioxo-1,2,3,4-tetrahydroquinazoline-7-carboxamide]: the EC50 is at least 2000 nM.

`O=C(Nc1ncc(F)s1)C(CC1CCCCC1)n1c(=O)[nH]c2ccc(F)cc2c1=O` (centres unmarked) [Compound 57, 3-Cyclohexyl-2-(6-fluoro-2,4-dioxo-1,4-dihydro-2H-quinazolin-3-yl)-N-(5-fluoro-thiazol-2-yl)-propionamide]: the EC50 was at least 2000 nM.

Regarding `CS(=O)(=O)c1ccc2ncn([C@@H](CC3CCCCC3)C(=O)Nc3ccc(C(N)=O)cn3)c(=O)c2c1` [Compound 93, 6-[3-Cyclohexyl-2-(6-methanesulfonyl-4-oxo-4H-quinazolin-3-yl)-propionylamino]-nicotinamide], the EC50 is 501 to 794 nM.

Consider `Cn1c(=O)n(C(CC2CCCCC2)C(=O)Nc2nccs2)c(=O)c2cc(Cl)ccc21` (centres unmarked) [Compound 39, 2-(6-chloro-1-methyl-2,4-dioxo-1,2-dihydroquinazolin-3(4H)-yl)-3-cyclohexyl-N-(thiazol-2-yl)propanamide], for which the EC50 is at least 2000 nM.

With `CS(=O)(=O)c1ccc2c(=O)n(C(CC3CCCCC3)C(=O)Nc3ccc(C#N)cn3)cnc2c1` (centres unmarked) [Compound 166, N-(5-cyanopyridin-2-yl)-3-cyclohexyl-2-(7-(methylsulfonyl)-4-oxoquinazolin-3(4H)-yl)propanamide], the EC50 is at least 2000 nM.

As to `COC(=O)c1ccc(NC(=O)C(CC2CCCCC2)n2cnc3ccc(F)cc3c2=O)nc1` (centres unmarked) [Compound 193, methyl 6-(3-cyclohexyl-2-(6-fluoro-4-oxoquinazolin-3(4H)-yl)propanamido)nicotinate], the EC50 is at least 2000 nM.

On to `COC(=O)c1ccc(NC(=O)[C@H](CC2CCCCC2)n2cnc3ccc(F)cc3c2=O)nc1` [Compound 203, (S)-methyl 6-(3-cyclohexyl-2-(6-fluoro-4-oxoquinazolin-3(4H)-yl)propanamido)nicotinate], for which the EC50 lay in the range of 1000 to 1580 nM.

On to `CS(=O)(=O)c1ccc2c(=O)n(C(CC3CCCCC3)C(=O)Nc3ccccn3)cnc2c1` (centres unmarked) [Compound 60, 3-Cyclohexyl-2-(7-methanesulfonyl-4-oxo-4H-quinazolin-3-yl)-N-pyridin-2-yl-propionamide], for which the EC50 was at least 2000 nM.

In the case of `CCS(=O)(=O)c1ccc2c(=O)n(C(CC3CCCCC3)C(=O)Nc3ccc(F)cn3)cnc2c1` (centres unmarked) [Compound 71, 3-Cyclohexyl-2-(7-ethanesulfonyl-4-oxo-4H-quinazolin-3-yl)-N-(5-fluoro-pyridin-2-yl)-propionamide], the EC50 fell in the range of 1000 to 1580 nM.

As for `CCS(=O)(=O)c1ccc2c(=O)n(C(CC3CCCCC3)C(=O)Nc3ccc(Cl)cn3)cnc2c1` (centres unmarked) [Compound 72, N-(5-Chloro-pyridin-2-yl)-3-cyclohexyl-2-(7-ethanesulfonyl-4-oxo-4H-quinazolin-3-yl)-propionamide], the EC50 was 501 to 794 nM.

For the compound `NC(=O)c1ccc(NC(=O)C(CC2CCCCC2)n2cnc3cc(S(=O)(=O)C4CC4)ccc3c2=O)nc1` (centres unmarked) [Compound 91, 6-[3-Cyclohexyl-2-(7-cyclopropanesulfonyl-4-oxo-4H-quinazolin-3-yl)-propionylamino]-nicotinamide], the EC50 is at most 398 nM.

Regarding `Cc1ccc(NC(=O)C(CC2CCCCC2)n2cnc3c(cnn3C)c2=O)nc1` (centres unmarked) [Compound 110, 3-Cyclohexyl-2-(1-methyl-4-oxo-1H-pyrazolo[3,4-d]pyrimidin-5(4H)-yl)-N-(5-methylpyridin-2-yl)propanamide], the EC50 was at least 2000 nM.

`NC(=O)c1ccc(NC(=O)C(CC2CCCCC2)n2cnc3cc(C(=O)NC4CC4)ccc3c2=O)nc1` (centres unmarked) [Compound 169, 3-(1-(5-carbamoylpyridin-2-ylamino)-3-cyclohexyl-1-oxopropan-2-yl)-N-cyclopropyl-4-oxo-3,4-dihydroquinazoline-7-carboxamide]: the EC50 is at most 398 nM.
